Assays:
intact ZIKV particles [1] = assay: Direct ELISA of biotinylated peptides vs intact ZIKV particles; format: binding, Zika virus (ZIKV); conditions: dose-response curves
Description: (§1) To optimize all parameters of the direct ELISA protocol, Pierce 96-Well Polystyrene Plates, (ThermoFisher Scientific) were coated overnight at 4° C. with different concentrations of intact virus particles (ZIKV or DENV). The intact virus particles were diluted using 100 mM NaHCO3, pH 9.6, and aliquots of 100 μL were dispensed into each well of the plate using a multichannel pipette. This buffer pH assured a strong hydrophobic binding interaction between polystyrene and virus particles.
(§2) Intact particles both ZIKV and DENV were provided by Dr. Watkins group (University of Miami, Dep. of Pathology). The samples were controlled and counted by focus forming assay and RT-PCR, the details were reported in a previous work (Magnani et al., 2017). The Intact particles of ZIKV were inactivated using gamma irradiation. Assay biohazardous steps were carried out according to standard safety procedures.
After coating the plates overnight, the intact virus particles were removed by washing five times with the washing buffer (PBST) 10 mM PBS pH 7.4, 0.1% Tween-20, using an automated plate washer (MultiWash+, Molecular Devices, Sunnyvale, Calif.). Then, the plates were blocked with 200 μL of blocking buffers while shaking at 300 rpm at room temperature. The blocking buffers used were: Pierce™ Protein-Free (PBS) Blocking Buffer (PF), Blocker™ BLOTTO in TBS, SuperBlock™ Blocking Buffer, Blocker™ BSA (1×) in PBS. All blocking buffer were from ThermoFisher Scientific.
After 2 h the blocking buffers were removed using the same washing procedure mentioned above. 100 μL-aliquots of several dilutions of peptides biotinylated in 10 mM PBS pH 7.4 were placed in each well and incubated for 2 h while shaking at 300 rpm at room temperature. After the incubation, the unreacted peptides were removed by using the plate washer with the same settings. Then, 100 μL-aliquots of streptavidin-HRP (ThermoFisher Scientific) at a concentration of 20 ng/mL were added into each well and incubated for 30 min at room temperature without shaking. After the incubation, excess streptavidin-HRP was removed and the wells were washed with the plate washer five times using the washing buffer. Finally, 100 μL-aliquots of the Ultra TMB-ELISA Substrate Solution (ThermoFisher Scientific) were added and after 10 min the reaction was stopped by adding 100 μL aliquots of the TMB stop solution (SeraCare). The emission (450 nm) was read using a microplate reader (Clariostar Optima; BMG Labtech, Ortenberg, Germany).
The corresponding blank signals in triplicates were obtained by using all reagents without peptides. The blank signal was then subtracted to the average absorbance values for triplicate wells of each test. […]

intact ZIKV particles [2] = assay: Direct ELISA matrix effect in urine and serum; format: binding, Zika virus (ZIKV); conditions: urine diluted 1:1, serum 1:10; 10^5 and 10^6 copies/mL ZIKV coated
Description: Usually, the presence of ZIKV in affected bodies is detected in biological fluids. Therefore, the analytical sensitivity of the selected peptides was tested in two biological matrices, namely, urine and serum. The matrix effect was investigated to understand how real biological fluids could modify the binding efficiency of the peptides.
FIG. 4 depicts the ELISA data using solutions of peptides with or without the urine and serum obtained coating clear 96-well plates with 10^^5 and 10^^6 copies/mL of intact ZIKV particles. Urine and serum were 1:1 and 1:10 diluted, respectively, with a concentrated peptide PBS solution (10 mM PBS, pH 7.4) to obtain a peptide final concentration of 0.5 μM for C3 and C6, 5 μM for C7 and 20 μM for mono-arm peptides (P2 and X1).

[3] = test system: three serotypes of DENV (DENV-1, -2 and -3); assay: Direct ELISA cross-reactivity study, ZIKV vs DENV; format: binding, Dengue virus (DENV); conditions: all DENV serotypes; plates coated with 10^5 copies/mL of intact virus particles
Description: as §1, §2
(§3) The cross-reactivity among Flaviviruses is a key parameter to be tested for this assay. Using the same ELISA protocol, the three clamp peptides (C3, C6 and C7) with higher sensitivity versus the intact ZIKV particles where employed to test the ability to discriminate ZIKV from the three serotypes of DENV (DENV-1, -2 and -3).
(§4) The results shown in FIG. 4 were obtained by coating clear 96-well plates with a solution of 10^^5 copies/mL of intact virus particles. […]

DENV-3 = assay: Direct ELISA cross-reactivity study, DENV-3; format: binding, Dengue virus (DENV); conditions: plates coated with 10^5 copies/mL of intact virus particles
Description: as §1, §2, §3, §4

DENV-2 = assay: Direct ELISA cross-reactivity study, DENV-2; format: binding, Dengue virus (DENV); conditions: plates coated with 10^5 copies/mL of intact virus particles
Description: as §1, §2, §3, §4

Substance: C7: clamp peptide: MDSPIK (22) - bridge GPGCCGPG (32) - KRNATP (26) (MDSPIKGPGCCGPGKRNATP; C7 Binds to Active Site 2; Bridge peptide; C3 Binds to Active Site 1)
- dynamic range width (orders of magnitude) (intact ZIKV particles [1]): three-order of magnitude dynamic range
- performance in urine and serum (intact ZIKV particles [2]): best performance among the three clamp peptides, having higher signals in serum than in urine
- signal decrease, DENV relative to ZIKV [3]: around 70%

Substance: C-SWPGQ (CSWPGQ; P1) [mono-arm pentapeptide with N-terminal cysteine]
- dynamic range width (orders of magnitude) (intact ZIKV particles [1]): one order of magnitude dynamic range

Substance: C6: clamp peptide: AGRRP (20) - bridge GPGCCGPG (32) - LRGHA (25) (AGRRPGPGCCGPGLRGHA; C5 Binds to Active Site 2; Bridge peptide; C2 Binds to Active Site 1)
- signal decrease, DENV-3 relative to ZIKV (DENV-3): 55%
- dynamic range width (orders of magnitude) (intact ZIKV particles [1]): three-order of magnitude dynamic range
- performance in urine and serum (intact ZIKV particles [2]): strong decrease in the signal
- signal decrease, DENV-2 relative to ZIKV (DENV-2): 45%

Substance: C3: clamp peptide: WPWIGT (18) - bridge GPGCCGPG (32) - KRNATP (26) (WPWIGTGPGCCGPGKRNATP; C3 Binds to Active Site 2; Bridge peptide; C3 Binds to Active Site 1)
- dynamic range width (orders of magnitude) (intact ZIKV particles [1]): three-order of magnitude dynamic range
- performance in urine and serum (intact ZIKV particles [2]): better performance in urine than serum
- signal decrease, DENV relative to ZIKV [3]: around 70%

Source: patent publication US11249082B2, “Zika virus assay systems” (UNIVERSITY OF MIAMI, priority 2016, dated 2022)
